Test results published in patent publication US6436416B1, “Cosmetic skin conditioning compositions containing high performing retinyl esters” (Unilever Home & Personal Care USA, division of Conopco, Inc., priority 2000, dated 2002).

How the values were obtained:
Procollagen I = Procollagen I assay; format: cell-based, human; conditions: fibroblasts, control at 100%
From the text: Collagen is a predominant skin protein. Its synthesis decreases with aging or photodamage. The degradation or destruction of collagen […] the tensile strength of the skin causing wrinkles and laxity. Many studies involving human subjects have shown that collagen type I is decreased with increasing severity of photodamage (See Kligman, A., JAMA, (1969), 210, pp. 2377-2380; Lavker, R., J. Inv Derm., (1979), 73, 79-66; Smith J. et al., J. lnv. Derm., (1962), 39, pp. 347-350; and Shuster, S. et al., Br. J. Dermatol., (1975), 93, pp. 639-643); and some correlation in the histology of wrinkles and reduction in collagen levels in the sun-exposed skin has been reported. See Chen, S.; Kiss, I., J. Inv. Derm., (1992), 98. pp. 248-254. Voorhees and colleagues have supported these findings by showing the restoration of collagen type I in photo-damaged human skin by a topical treatment with tretinoin. See Christopher, E., et al., The New Eng. Jou. of Medicine (1993), 329, pp. 530-535. Procollagen I is a precursor of collagen. Increased production of procollagen I in response to a test compound application is a marker of an increased collagen level.
Seed passage 3 (P3) fibroblasts in 6-well tissue culture treated dishes at a density of ˜10,000 cells/well.
Culture cells until ˜70% confluent in high glucose Dulbecco's Modified Eagles Medium (DMEM).
When cells are ˜70% confluent, replace with fresh medium, dose with actives and continue culturing until cells are 100% confluent.
Remove media and store at 4° C.
Dilute 20 μl conditioned (treated) media in 200 μl unconditioned DMEM.
Soak nitrocellulose membrane and 3 sheets of filter paper in 1×TBS (tris buffered saline, pH=7.3).
Set up Bio-Rad slot blot apparatus with filter paper on bottom, nitrocellulose membrane on top. Add 100 μl TBS/well. Vacuum dry.
Remove membrane from apparatus and place in blocking solution (5% milk powder in phosphate buffered saline (PBS)) for 1 hr at room temperature or overnight at 4° C.
Primary antibody-Remove membrane from blocking solution and incubate for 1.5 hours at room temperature or overnight at 4° C. with 1.5 ml rat anti-human procollagen amino-terminal antibody (Chemicon MAB1912) 1:100 in TBS with 0.1% bovine serum albumin (BSA).
Remove membrane, was 3×(10 minutes/wash) in TBS/0.1% tween 20.
Secondary antibody-incubate for 1 hour at room temperature or overnight at 4° C. in 2 ml 1:1000 biotinylated anti-rat peroxidase conjugated antibody (Vector Labs).
Remove membrane from secondary antibody and was 3×(10 minutes/wash) in TBS/0.1% tween 20.
Preincubate 3 ml PBS with 30 μl each of solutions A and B from Vectastain kit for 30 minutes. […]
Scan using a laser densitometer and quantified as % over control (with control at 100%).

[1] = test system: CRABP-2 expression of pig skin epidermis; test: CRABP-2 assay; format: cell-based; conditions: topical dose 5 μl in ethanol vehicle, four days, control as 100%
From the text: Within the cells, retinol and retinoic acid are bound to specific cellular binding proteins. Two of the major proteins are CRABP-1 and CRABP-2 (Roos et al., Pharmacological reviews: 50, 315-333, 1998). These proteins regulate the intracellular concentration of retinoids by acting as either storage or shuttle proteins in retinoid metabolism. The levels of CRABP protein are regulated by the amount of retinoic acid within the cells. Higher cellular levels of retinoids increase the expression of CRABP-2. Therefore, the amount of this protein in the cells is a measure of the retinoid activity of the cells. Skin cells contain high levels of CRABP-2 both in the epidermis and the dermis. CRABP-2 response to retinoid administration in is used as a reproducible measure of retinoid bioactivity that predict human skin responses (Elder et al., J. Invest. Dermatol., 106: 517-521, 1996). Increase in CRABP-2 is also associated with increased epidermal differentiation, and dermal retinoid action. Therefore, in these studies we used CRABP-2 expression of pig skin epidermis as a measure of retinoid activity leading to increased epidermal differentiation (skin conditioning and dry skin benefit) and dermal collagen and extracellular matrix synthesis (antiaging, anti wrinkling benefits).
Pig skin was received, scrubbed with Vionex detergent, and dermatomed at a thickness of 0.058 cm and allowed to wash in preliminary medium on a shaker for an hour with three solution changes.
7 mm punches were taken and allowed to sit in final medium overnight. The next day, the medium was refreshed with final medium 1 mL per well. One day later, the plates received fresh final medium,and topically dosed with 5 μl of the active(s) in an ethanol vehicle.
After four days, the biopsies will be removed from the plates, washed with PBS in a concial tube, and frozen at −80° C. for future use.
After thawing, the epidermis was separated and boiled in urea and sample buffer, after which protein quantitation was possible.
16% 15 lane acrylamide gels were loaded ewith the appropriate samples and run until all the proteins were separated based upon their molecular weight.
The gels were transferred onto PVDF membranes at 25 constant Volts for 2.5 hours.
The membranes were blocked with 5% milk in TBST (Tween 0.05%) for one hour at room temperature.
Primary Ab exposure 1:1,000 in 1% milk TBS soln for one hour, followed by six washes with TBST over a period of one hour. […]
The bands in the film were quantified by densitometric scanning, the data from triplicate samples were calculated as % of control and expressed in the following tables as % increase over control (with control as 100%).

CCCCC/C=C/C/C=C/C/C=C/CCCCC(=O)OC/C=C(C)/C=C/C=C(C)/C=C/C1=C(C)CCCC1(C)C [Gamma-retinyl linolenate, Retinyl-cis-6,9,12-Octadecatrienoate]
% over control (Procollagen I; Experiment 1, concentration 10^−5 M, p < 0.05): 225 % over control | % over control ([1]; concentration 10^−4 M): 882 % over control

CCCCCCCCCCCCCCCC(=O)OC/C=C(C)/C=C/C=C(C)/C=C/C1=C(C)CCCC1(C)C [Retinyl Palmitate, reference compound]
% over control (Procollagen I; Experiment 3, concentration 10^−7 M, not significant): 24 % over control | % over control ([1]; concentration 10^−3 M): 444 % over control

CCCCC/C=C/CCCCCCCCCCC(=O)OC/C=C(C)/C=C/C=C(C)/C=C/C1=C(C)CCCC1(C)C [Retinyl cis-12-Octadecenoate, Retinyl-cis12-Octadecenoate]
% over control (Procollagen I; Experiment 2, concentration 10^−6 M, p < 0.05): 28 % over control | % over control ([1]; concentration 10^−4 M): 993 % over control

CCCCCCCCCCC/C=C/CCCCC(=O)OC/C=C(C)/C=C/C=C(C)/C=C/C1=C(C)CCCC1(C)C [Retinyl petroselinate, Retinyl Petroselinate]
% over control (Procollagen I; Experiment 1, concentration 10^−6 M, p < 0.05): 110 % over control | % over control ([1]; concentration 10^−3 M): 522 % over control
